Assay results: PubChem BioAssay AID248 (DTP/NCI, 2004)
Where “and” joins values, the source holds several entries; their conditions need not be identical. Identical values can stand only once. Inconclusive results and toxic doses are left out. Cut-off read from the data, not from the text of the source: active = T/C of 150% or more; inactive = T/C below 125%.

System: L1210 leukemia ip in BDF1 mice, survival T/C
Experiment: NCI In Vivo Anticancer Drug Screen. Data for tumor model L1210 Leukemia (intraperitoneal) in B6D2F1 (BDF1) mice
Details: endpoint: mean survival time, higher = longer survival
How it was run: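 Tumor cells were implanted, animals were treated, and survival was followed. The result divides the treated measurement by the vehicle-control measurement.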

[1] = dose: 100.0 mg/kg/injection, schedule: Q01DX001 (ip), vehicle: Klucel (hydroxypropylcellulose) (HPC)
[2] = dose: 200.0 mg/kg/injection, schedule: Q01DX001 (ip), vehicle: Klucel (hydroxypropylcellulose) (HPC)
[3] = dose: 100.0 mg/kg/injection, schedule: Q01DX009 (ip), vehicle: Klucel (hydroxypropylcellulose) (HPC)
[4] = dose: 100.0 mg/kg/injection, schedule: Q04DX002 (ip), vehicle: Klucel (hydroxypropylcellulose) (HPC)
[5] = dose: 100.0 mg/kg/injection, schedule: Q04DX003 (ip), vehicle: Klucel (hydroxypropylcellulose) (HPC)
[6] = dose: 200.0 mg/kg/injection, schedule: Q01DX009 (ip), vehicle: Klucel (hydroxypropylcellulose) (HPC)
[7] = dose: 200.0 mg/kg/injection, schedule: Q04DX002 (ip), vehicle: Klucel (hydroxypropylcellulose) (HPC)
[8] = dose: 400.0 mg/kg/injection, schedule: Q04DX002 (ip), vehicle: Klucel (hydroxypropylcellulose) (HPC)
[9] = dose: 100.0 mg/kg/injection, schedule: Q04DX002 (ip), vehicle: saline with Tween-80
[10] = dose: 100.0 mg/kg/injection, schedule: Q01DX009 (ip), vehicle: saline with Tween-80
[11] = dose: 200.0 mg/kg/injection, schedule: Q01DX009 (ip), vehicle: saline with Tween-80
[12] = dose: 50.0 mg/kg/injection, schedule: Q01DX009 (ip), vehicle: Klucel (hydroxypropylcellulose) (HPC)
[13] = dose: 200.0 mg/kg/injection, schedule: Q04DX003 (ip), vehicle: Klucel (hydroxypropylcellulose) (HPC)
[14] = dose: 400.0 mg/kg/injection, schedule: Q04DX003 (ip), vehicle: Klucel (hydroxypropylcellulose) (HPC)
[15] = dose: 100.0 mg/kg/injection, schedule: Q04DX003 (ip), vehicle: saline with Tween-80
[16] = dose: 200.0 mg/kg/injection, schedule: Q04DX003 (ip), vehicle: saline with Tween-80
[17] = dose: 400.0 mg/kg/injection, schedule: Q04DX003 (ip), vehicle: saline with Tween-80

Measured: T/C

CC(C)CC1NC(=O)C(NC(=O)C(Cc2ccccc2)N(C)C)C(C(C)C)Oc2ccc(cc2)/C=C\NC1=O (stereo not drawn)
inactive: dose: 50.0 mg/kg/injection, schedule: Q01DX001 (ip), vehicle: Klucel (hydroxypropylcellulose) (HPC) 90 % of control | [1] 90 % of control | [2] 93 % of control

O=C(Nc1ccc(F)c([N+](=O)[O-])c1)Oc1cc(=O)oc2ccccc12
inactive: dose: 25.0 mg/kg/injection, schedule: Q04DX003 (ip), vehicle: Klucel (hydroxypropylcellulose) (HPC) 104 % of control | dose: 50.0 mg/kg/injection, schedule: Q04DX003 (ip), vehicle: Klucel (hydroxypropylcellulose) (HPC) 101 % of control | dose: 75.0 mg/kg/injection, schedule: Q01DX001 (ip), vehicle: Klucel (hydroxypropylcellulose) (HPC) 102 % of control | dose: 75.0 mg/kg/injection, schedule: Q01DX009 (ip), vehicle: Klucel (hydroxypropylcellulose) (HPC) 93 % of control and 103 % of control | [3] 103 % of control and 92 % of control | [4] 95 % of control and 107 % of control | [5] 98 % of control | dose: 150.0 mg/kg/injection, schedule: Q01DX001 (ip), vehicle: Klucel (hydroxypropylcellulose) (HPC) 102 % of control | dose: 150.0 mg/kg/injection, schedule: Q01DX009 (ip), vehicle: Klucel (hydroxypropylcellulose) (HPC) 87 % of control and 92 % of control | [6] 97 % of control | [7] 100 % of control and 102 % of control | dose: 300.0 mg/kg/injection, schedule: Q01DX001 (ip), vehicle: Klucel (hydroxypropylcellulose) (HPC) 107 % of control | [8] 95 % of control and 96 % of control

CC(C)N(CCNCC(Cc1ccccc1)c1ccccc1)C(C)C (stereo not drawn)
inactive: dose: 25.0 mg/kg/injection, schedule: Q04DX002 (ip), vehicle: saline with Tween-80 99 % of control | dose: 50.0 mg/kg/injection, schedule: Q04DX002 (ip), vehicle: saline with Tween-80 96 % of control | [9] 102 % of control

CC(=O)OCc1c(C)[nH]c2ccc(N(C)C)cc2c1=O
inactive: [10] 102 % of control | [11] 112 % of control

O=C(C[n+]1cc2ccccc2c2ccccc21)c1ccccc1
inactive: [3] 95 % of control

CCNC(Cc1ccccc1)c1ccco1 (stereo not drawn)
inactive: [12] 109 % of control | [3] 104 % of control

CC(C)(C)OC(=O)COc1cccc([N+](=O)[O-])c1
inactive: [3] 114 % of control | [6] 102 % of control | dose: 400.0 mg/kg/injection, schedule: Q01DX009 (ip), vehicle: Klucel (hydroxypropylcellulose) (HPC) 100 % of control

CCOP(OCC)SSCn1nc2ccc3ccccc3n2c1=O
inactive: [12] 101 % of control

Nc1ccc(C(=O)N/N=C/C=C/c2ccccc2)cc1
inactive: [4] 105 % of control | [7] 96 % of control | [8] 99 % of control

COC1c2c(nc3ccccc3c2C#N)-c2ccccc2C1(C)C (stereo not drawn)
inactive: [5] 106 % of control | [13] 95 % of control | [14] 104 % of control

O=[N+]([O-])c1cc(S(=O)(=O)Oc2ccccc2)ccc1Cl
inactive: dose: 12.5 mg/kg/injection, schedule: Q01DX009 (ip), vehicle: Klucel (hydroxypropylcellulose) (HPC) 105 % of control | dose: 25.0 mg/kg/injection, schedule: Q01DX009 (ip), vehicle: Klucel (hydroxypropylcellulose) (HPC) 105 % of control | dose: 50.0 mg/kg/injection, schedule: Q01DX001 (ip), vehicle: carboxymethylcellulose (CMC) 116 % of control | [12] 100 % of control | dose: 100.0 mg/kg/injection, schedule: Q01DX001 (ip), vehicle: carboxymethylcellulose (CMC) 100 % of control | [5] 98 % of control | dose: 200.0 mg/kg/injection, schedule: Q01DX001 (ip), vehicle: carboxymethylcellulose (CMC) 100 % of control | [13] 103 % of control | dose: 400.0 mg/kg/injection, schedule: Q01DX001 (ip), vehicle: carboxymethylcellulose (CMC) 105 % of control | [14] 89 % of control

NC(=O)CC[n+]1ccccc1
inactive: dose: 12.5 mg/kg/injection, schedule: Q01DX009 (ip), vehicle: saline 97 % of control | dose: 25.0 mg/kg/injection, schedule: Q01DX009 (ip), vehicle: saline 93 % of control | dose: 50.0 mg/kg/injection, schedule: Q01DX009 (ip), vehicle: saline 96 % of control | dose: 50.0 mg/kg/injection, schedule: Q04DX003 (ip), vehicle: saline 105 % of control

CCC(CO)Nc1nc2cc(Br)ccc2c2ccc(Br)cc12 (stereo not drawn)
inactive: [5] 90 % of control | [13] 87 % of control | [14] 94 % of control

C#CCOS(C)(=O)=O
inactive: dose: 10.0 mg/kg/injection, schedule: Q01DX009 (ip), vehicle: saline 108 % of control | dose: 10.0 mg/kg/injection, schedule: Q04DX002 (ip), vehicle: saline 107 % of control | dose: 20.0 mg/kg/injection, schedule: Q01DX009 (ip), vehicle: saline 124 % of control | dose: 20.0 mg/kg/injection, schedule: Q04DX002 (ip), vehicle: saline 103 % of control | dose: 40.0 mg/kg/injection, schedule: Q04DX002 (ip), vehicle: saline 103 % of control

O=C1OC(c2ccccc2)(C2(c3ccccc3)C=C(c3ccccc3)C(=O)O2)C=C1c1ccccc1 (stereo not drawn)
inactive: [1] 100 % of control | [5] 94 % of control | [2] 97 % of control | [13] 103 % of control | dose: 400.0 mg/kg/injection, schedule: Q01DX001 (ip), vehicle: Klucel (hydroxypropylcellulose) (HPC) 100 % of control | [14] 91 % of control

Cc1ccc(N=C(N)NC#N)cc1
inactive: [15] 89 % of control | [16] 86 % of control | [17] 88 % of control

C=CCOP(=O)(OCC=C)c1ccccc1
inactive: dose: 55.0 mg/kg/injection, schedule: Q01DX Z (ip), vehicle: methylcellulose (MC) 89 % of control | dose: 83.0 mg/kg/injection, schedule: Q01DX Z (ip), vehicle: methylcellulose (MC) 98 % of control | dose: 125.0 mg/kg/injection, schedule: Q01DX Z (ip), vehicle: methylcellulose (MC) 93 % of control

O=C(c1ccccc1)C(Br)C(C(=O)c1ccccc1)c1ccccc1 (stereo not drawn)
inactive: dose: 50.0 mg/kg/injection, schedule: Q01DX009 (ip), vehicle: saline with Tween-80 94 % of control | [10] 90 % of control | [11] 86 % of control

CCOC(=O)COc1c(C)cccc1Cl
inactive: [9] 111 % of control | dose: 200.0 mg/kg/injection, schedule: Q04DX002 (ip), vehicle: saline with Tween-80 114 % of control

CSCC(N)CO (stereo not drawn)
inactive: dose: 100.0 mg/kg/injection, schedule: Q01DX009 (ip), vehicle: saline 94 % of control | dose: 100.0 mg/kg/injection, schedule: Q04DX003 (ip), vehicle: saline 100 % of control | dose: 200.0 mg/kg/injection, schedule: Q01DX009 (ip), vehicle: saline 100 % of control | dose: 200.0 mg/kg/injection, schedule: Q04DX003 (ip), vehicle: saline 103 % of control | dose: 400.0 mg/kg/injection, schedule: Q01DX009 (ip), vehicle: saline 100 % of control | dose: 400.0 mg/kg/injection, schedule: Q04DX003 (ip), vehicle: saline 103 % of control

C/C=C1\SC(=S)NC1=O
inactive: dose: 20.0 mg/kg/injection, schedule: Q01DX001 (ip), vehicle: other 100 % of control | dose: 40.0 mg/kg/injection, schedule: Q01DX001 (ip), vehicle: other 100 % of control | dose: 80.0 mg/kg/injection, schedule: Q01DX001 (ip), vehicle: other 101 % of control

Cc1ccc([S+](c2ccccc2)c2cc(C)ccc2C)cc1 (stereo not drawn)
inactive: dose: 2.5 mg/kg/injection, schedule: Q01DX001 (ip), vehicle: carboxymethylcellulose (CMC) 103 % of control | dose: 5.0 mg/kg/injection, schedule: Q01DX001 (ip), vehicle: carboxymethylcellulose (CMC) 102 % of control

COCn1cnc([N+](=O)[O-])c1Br
inactive: dose: 100.0 mg/kg/injection, schedule: Q01DX001 (ip), vehicle: acetone 101 % of control | [10] 96 % of control | dose: 200.0 mg/kg/injection, schedule: Q01DX001 (ip), vehicle: acetone 90 % of control | [11] 93 % of control | dose: 400.0 mg/kg/injection, schedule: Q01DX001 (ip), vehicle: acetone 100 % of control | dose: 400.0 mg/kg/injection, schedule: Q01DX009 (ip), vehicle: saline with Tween-80 86 % of control

CC(C)N(SSN(C(C)C)C(C)C)C(C)C
inactive: [15] 95 % of control | [16] 100 % of control | [17] 89 % of control
